Source: US20020137929A1, “1 - (3-heterocyclylphenyl) isothiourea, -isourea, -guanidine and -amidine herbicidal agents” (Intellectual Property Department, BASF Aktiengesellschaft, priority 1998, published 2002)

What was measured:
CYPIR (Rice Flatsedge) = assay: Postemergence weed control under flooded paddy conditions; assay type: in vivo, Cyperus iria; conditions: postemergence weeds, 3-4 weeks after treatment
Method in brief: (§1)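 Weeds 3 to 5 cm tall and rice seedlings at the 1.5 to 2.5 leaf stage were flooded, with water held 1.5 to 3 cm above the soil. Compounds in 50/50 v/v aqueous/acetone went into the flood water at about 0.0313 to 0.500 kg/ha. Visual 0-9 ratings versus control were made 3 to 4 weeks later.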

[1] = test system: TRZAWR (Wheat, Winter, cv Riband); assay: Postemergence herbicidal evaluation; assay type: in vivo, Triticum aestivum; conditions: postemergence
Method in brief: (§2)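 Visual 0–9 rating versus control (stand, vigor, malformation, size, chlorosis, overall appearance), taken four to five weeks post-spray. Two-week-old seedlings received roughly 0.0156–0.500 kg/ha active in acetone/water (50/50) with 0.5% TWEEN 20 via nozzle at 40 psi.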

[2] = test system: GLXMAW (Soybean, Williams); assay: Postemergence herbicidal evaluation; assay type: in vivo, Glycine max, (L.) Merr. cv Williams; conditions: postemergence
Method in brief: as §2

SETVI (Foxtail, Green) [3] = assay: Preemergence herbicidal evaluation; assay type: in vivo, Setaria viridis; conditions: rated 4-5 weeks after treatment
Method in brief: (§3)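 Scores (0–9) reflect visual comparison with control plants for stand, vigor, malformation, size and chlorosis. Compound was applied to the soil after sowing, before emergence, as an aqueous acetone spray (about 0.0156–0.500 kg/ha), and cups were kept in a greenhouse for 4–5 weeks.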

ABUTH (Velvetleaf) [4] = assay: Postemergence herbicidal evaluation; assay type: in vivo, Abutilon theophrasti; conditions: postemergence
Method in brief: as §2

[5] = test system: SAGPY (Arrowhead (Pygmaea)); assay: Postemergence weed control under flooded paddy conditions; assay type: in vivo, Sagittaria pygmaea; conditions: postemergence weeds, 3-4 weeks after treatment
Method in brief: as §1

SETVI (Foxtail, Green) [6] = assay: Postemergence herbicidal evaluation; assay type: in vivo, Setaria viridis; conditions: postemergence
Method in brief: as §2

[7] = test system: SAGPY (Arrowhead (Pygmaea)); assay: Preemergence weed control under flooded paddy conditions; assay type: in vivo, Sagittaria pygmaea; conditions: rated 3-4 weeks after treatment
Method in brief: (§4)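 Values are visual 0-9 scores against a control for a preemergence application into paddy flood water at about 0.0313 to 0.500 kg/ha. Greenhouse duration was three to four weeks.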

ORYSAT (Rice, Tebonnet) = assay: Postemergence herbicidal evaluation; assay type: in vivo, Oryza sativa, (L.) Tebonnet; conditions: postemergence
Method in brief: as §2

ECHCG (Barnyardgrass) = assay: Postemergence herbicidal evaluation; assay type: in vivo, Echinochloa crus-galli; conditions: postemergence
Method in brief: as §2

CASOB (Sicklepod) = assay: Preemergence herbicidal evaluation; assay type: in vivo, Cassia obtusifolia; conditions: rated 4-5 weeks after treatment
Method in brief: as §3

AMBEL (Ragweed, Common) = assay: Postemergence herbicidal evaluation; assay type: in vivo, Ambrosia artemisifolia; conditions: postemergence
Method in brief: as §2

ABUTH (Velvetleaf) [8] = assay: Preemergence herbicidal evaluation; assay type: in vivo, Abutilon theophrasti; conditions: rated 4-5 weeks after treatment
Method in brief: as §3

MOOVA (Monochoria) = assay: Preemergence weed control under flooded paddy conditions; assay type: in vivo, Monochoria vaginalis; conditions: rated 3-4 weeks after treatment
Method in brief: as §4

## CC1SC(=Nc2cc(-n3c(=O)cc(C(F)(F)F)n(C)c3=O)c(F)cc2Cl)N(C)C1=O (centres unmarked) [Compound 9]
CYPIR (Rice Flatsedge); rate 0.0313 kg/ha
  Herbicidal rating CYPIR: 0.0
CYPIR (Rice Flatsedge); rate 0.0625 kg/ha
  Herbicidal rating CYPIR: 2.0
CYPIR (Rice Flatsedge); rate 0.1250 kg/ha
  Herbicidal rating CYPIR: 4.0
CYPIR (Rice Flatsedge); rate 0.2500 kg/ha
  Herbicidal rating CYPIR: 6.0
[1]; rate 0.0156 kg/ha
  TRZAWR herbicidal rating: 3.3
[1]; rate 0.0313 kg/ha
  TRZAWR herbicidal rating: 3.5
[1]; rate 0.0625 kg/ha
  TRZAWR herbicidal rating: 4.3
[1]; rate 0.1250 kg/ha
  TRZAWR herbicidal rating: 5.0
[2]; rate 0.0156 kg/ha
  GLXMAW herbicidal rating: 4.5
[2]; rate 0.0313 kg/ha
  GLXMAW herbicidal rating: 5.8
[2]; rate 0.0625 kg/ha
  GLXMAW herbicidal rating: 6.8
[2]; rate 0.1250 kg/ha
  GLXMAW herbicidal rating: 7.3
SETVI (Foxtail, Green) [3]; rate 0.0156 kg/ha
  SETVI preemergence herbicidal rating: 8.3
SETVI (Foxtail, Green) [3]; rate 0.0313 kg/ha
  SETVI preemergence herbicidal rating: 9.0
SETVI (Foxtail, Green) [3]; rate 0.0625 kg/ha
  SETVI preemergence herbicidal rating: 9.0
SETVI (Foxtail, Green) [3]; rate 0.1250 kg/ha
  SETVI preemergence herbicidal rating: 9.0
SETVI (Foxtail, Green) [3]; rate 0.2500 kg/ha
  SETVI preemergence herbicidal rating: 9.0
ABUTH (Velvetleaf) [4]; rate 0.0156 kg/ha
  ABUTH herbicidal rating: 9.0
ABUTH (Velvetleaf) [4]; rate 0.0313 kg/ha
  ABUTH herbicidal rating: 9.0
ABUTH (Velvetleaf) [4]; rate 0.0625 kg/ha
  ABUTH herbicidal rating: 9.0
ABUTH (Velvetleaf) [4]; rate 0.1250 kg/ha
  ABUTH herbicidal rating: 9.0
[5]; rate 0.0313 kg/ha
  Herbicidal rating SAGPY: 0.0
[5]; rate 0.0625 kg/ha
  Herbicidal rating SAGPY: 0.0
[5]; rate 0.1250 kg/ha
  Herbicidal rating SAGPY: 1.0
[5]; rate 0.2500 kg/ha
  Herbicidal rating SAGPY: 2.0
SETVI (Foxtail, Green) [6]; rate 0.0156 kg/ha
  SETVI herbicidal rating: 1.0
SETVI (Foxtail, Green) [6]; rate 0.0313 kg/ha
  SETVI herbicidal rating: 2.0
SETVI (Foxtail, Green) [6]; rate 0.0625 kg/ha
  SETVI herbicidal rating: 6.5
SETVI (Foxtail, Green) [6]; rate 0.1250 kg/ha
  SETVI herbicidal rating: 9.0
[7]; 0.0313 kg/ha
  Herbicidal rating SAGPY: 0.0
[7]; 0.0625 kg/ha
  Herbicidal rating SAGPY: 0.0
[7]; 0.1250 kg/ha
  Herbicidal rating SAGPY: 1.0
[7]; 0.2500 kg/ha
  Herbicidal rating SAGPY: 2.0
ORYSAT (Rice, Tebonnet); rate 0.0156 kg/ha
  ORYSAT herbicidal rating: 2.0
ORYSAT (Rice, Tebonnet); rate 0.0313 kg/ha
  ORYSAT herbicidal rating: 2.3
ORYSAT (Rice, Tebonnet); rate 0.0625 kg/ha
  ORYSAT herbicidal rating: 3.0
ORYSAT (Rice, Tebonnet); rate 0.1250 kg/ha
  ORYSAT herbicidal rating: 3.5
ECHCG (Barnyardgrass); rate 0.0156 kg/ha
  ECHCG herbicidal rating: 0.0
ECHCG (Barnyardgrass); rate 0.0313 kg/ha
  ECHCG herbicidal rating: 0.0
ECHCG (Barnyardgrass); rate 0.0625 kg/ha
  ECHCG herbicidal rating: 2.0
ECHCG (Barnyardgrass); rate 0.1250 kg/ha
  ECHCG herbicidal rating: 4.5
CASOB (Sicklepod); rate 0.0156 kg/ha
  CASOB preemergence herbicidal rating: 1.0
CASOB (Sicklepod); rate 0.0313 kg/ha
  CASOB preemergence herbicidal rating: 1.0
CASOB (Sicklepod); rate 0.0625 kg/ha
  CASOB preemergence herbicidal rating: 3.0
CASOB (Sicklepod); rate 0.1250 kg/ha
  CASOB preemergence herbicidal rating: 5.3
CASOB (Sicklepod); rate 0.2500 kg/ha
  CASOB preemergence herbicidal rating: 8.0
AMBEL (Ragweed, Common); rate 0.0156 kg/ha
  AMBEL herbicidal rating: 2.0
AMBEL (Ragweed, Common); rate 0.0313 kg/ha
  AMBEL herbicidal rating: 3.5
AMBEL (Ragweed, Common); rate 0.0625 kg/ha
  AMBEL herbicidal rating: 7.5
AMBEL (Ragweed, Common); rate 0.1250 kg/ha
  AMBEL herbicidal rating: 7.0
ABUTH (Velvetleaf) [8]; rate 0.0156 kg/ha
  ABUTH preemergence herbicidal rating: 9.0
ABUTH (Velvetleaf) [8]; rate 0.0313 kg/ha
  ABUTH preemergence herbicidal rating: 9.0
ABUTH (Velvetleaf) [8]; rate 0.0625 kg/ha
  ABUTH preemergence herbicidal rating: 9.0
ABUTH (Velvetleaf) [8]; rate 0.1250 kg/ha
  ABUTH preemergence herbicidal rating: 9.0
ABUTH (Velvetleaf) [8]; rate 0.2500 kg/ha
  ABUTH preemergence herbicidal rating: 9.0
MOOVA (Monochoria); 0.0313 kg/ha
  Herbicidal rating MOOVA: 9.0
MOOVA (Monochoria); 0.0625 kg/ha
  Herbicidal rating MOOVA: 9.0
MOOVA (Monochoria); 0.1250 kg/ha
  Herbicidal rating MOOVA: 9.0
MOOVA (Monochoria); 0.2500 kg/ha
  Herbicidal rating MOOVA: 9.0
